In ChEMBL document CHEMBL1201862, “PubChem BioAssay data set” (2004):
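Following 48 hours of exposure in 96-well plates, responses at five concentrations were used to interpolate endpoints linearly. At the GI50, growth is halved.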 The source made the active and inactive calls. No stated cut-off is given here; in the data, active = GI50 up to about 1.1 µM and inactive = higher.

What was measured:
Assay in all cases: NCI-60 cell line screen, 48 h
SNB-19 = system: SNB-19
SR = system: SR
TK-10 = system: TK-10
NCI-H460 = system: NCI-H460
OVCAR-4 = system: OVCAR-4
SK-MEL-5 = system: SK-MEL-5
NCI-H23 = system: NCI-H23
MCF7 = system: MCF7
T47D = system: T47D
SK-MEL-2 = system: SK-MEL-2
SK-MEL-28 = system: SK-MEL-28
NCI-H522 = system: NCI-H522
SK-OV-3 = system: SK-OV-3
NCI-H226 = system: NCI-H226
HT-29 = system: HT-29
HL-60 = system: HL-60
HOP-62 = system: HOP-62
SF-295 = system: SF-295
RPMI-8226 = system: RPMI-8226
A498 = system: A498
SF-268 = system: SF-268
A549 = system: A549
SN12C = system: SN12C
MOLT-4 = system: MOLT-4
LOX IMVI = system: LOX IMVI
CCRF-CEM = system: CCRF-CEM
EKVX = system: EKVX
K562 = system: K562
IGROV-1 = system: IGROV-1
DU-145 = system: DU-145
Hs-578T = system: Hs-578T
M14 = system: M14
UACC-257 = system: UACC-257
786-0 = system: 786-0
MDA-MB-435 = system: MDA-MB-435
COLO 205 = system: COLO 205
Malme-3M = system: Malme-3M
KM12 = system: KM12
SW-620 = system: SW-620
HCC 2998 = system: HCC 2998
ACHN = system: ACHN
UO-31 = system: UO-31
OVCAR-3 = system: OVCAR-3
OVCAR-8 = system: OVCAR-8
CAKI-1 = system: CAKI-1
SNB-75 = system: SNB-75
OVCAR-5 = system: OVCAR-5
UACC-62 = system: UACC-62
MDA-MB-231 = system: MDA-MB-231
HCT-116 = system: HCT-116
SF-539 = system: SF-539
HCT-15 = system: HCT-15
BT-549 = system: BT-549
U-251 = system: U-251
NCI/ADR-RES = system: NCI/ADR-RES

Compound: c1ccc(-c2cnc3nc4ccccc4nc3n2)cc1
- GI50 (SNB-19): 13.7 µM (inactive)
- GI50 (SR): 0.826 µM (active)
- GI50 (TK-10): 4.2 µM (inactive)
- GI50 (NCI-H460): 2.96 µM (inactive)
- GI50 (OVCAR-4): 1.72 µM (inactive)
- GI50 (SK-MEL-5): 3.05 µM (inactive)
- GI50 (NCI-H23): 3.82 µM (inactive)
- GI50 (MCF7): 1.82 µM (inactive)
- GI50 (T47D): 3.85 µM (inactive)
- GI50 (SK-MEL-2): 2.88 µM (inactive)
- GI50 (SK-MEL-28): 14.7 µM (inactive)
- GI50 (NCI-H522): 3.5 µM (inactive)
- GI50 (SK-OV-3): 2.87 µM (inactive)
- GI50 (NCI-H226): 3.23 µM (inactive)
- GI50 (HT-29): 7.05 µM (inactive)
- GI50 (HL-60): 1.82 µM (inactive)
- GI50 (HOP-62): 13.9 µM (inactive)
- GI50 (SF-295): 6.11 µM (inactive)
- GI50 (RPMI-8226): 1.32 µM (inactive)
- GI50 (A498): 3.33 µM (inactive)
- GI50 (SF-268): 4.29 µM (inactive)
- GI50 (A549): 10 µM (inactive)
- GI50 (SN12C): 9.08 µM (inactive)
- GI50 (MOLT-4): 1.31 µM (inactive)
- GI50 (LOX IMVI): 3.25 µM (inactive)
- GI50 (CCRF-CEM): 0.301 µM (active)
- GI50 (EKVX): 2.88 µM (inactive)
- GI50 (K562): 2.51 µM (inactive)
- GI50 (IGROV-1): 3.31 µM (inactive)
- GI50 (DU-145): 3.83 µM (inactive)
- GI50 (Hs-578T): 3.78 µM (inactive)
- GI50 (M14): 6.11 µM (inactive)
- GI50 (UACC-257): 2.25 µM (inactive)
- GI50 (786-0): 3.9 µM (inactive)
- GI50 (MDA-MB-435): 1.58 µM (inactive)
- GI50 (COLO 205): 2.15 µM (inactive)
- GI50 (Malme-3M): 2.45 µM (inactive)
- GI50 (KM12): 1.22 µM (inactive)
- GI50 (SW-620): 2.81 µM (inactive)
- GI50 (HCC 2998): 11.7 µM (inactive)
- GI50 (ACHN): 1.22 µM (inactive)
- GI50 (UO-31): 4.58 µM (inactive)
- GI50 (OVCAR-3): 1.16 µM (inactive)
- GI50 (OVCAR-8): 1.98 µM (inactive)
- GI50 (CAKI-1): 0.942 µM (active)
- GI50 (SNB-75): 2.66 µM (inactive)
- GI50 (OVCAR-5): 13.6 µM (inactive)
- GI50 (UACC-62): 2.85 µM (inactive)
- GI50 (MDA-MB-231): 2.69 µM (inactive)
- GI50 (HCT-116): 2.86 µM (inactive)
- GI50 (SF-539): 3.25 µM (inactive)
- GI50 (HCT-15): 2.5 µM
- GI50 (BT-549): 3.43 µM (inactive)
- GI50 (U-251): 4.94 µM (inactive)
- GI50 (NCI/ADR-RES): 3.81 µM (inactive)
